According to paper PMC10115881, “Disrupting the α-synuclein-ESCRT interaction with a peptide inhibitor mitigates neurodegeneration in preclinical models of Parkinson’s disease” (Nature Communications, 2023):

Tested on: a-syn oligomers in iPSC-derived dopaminergic neurons
Assay: a-syn oligomer (Syn-O2) fluorescence in iPSC-derived dopaminergic neurons
Type: cell-based, human
Conditions: A53T a-syn iPSC-derived dopaminergic neurons
Excerpt: Further, we used an antibody that has a high binding affinity for oligomeric a-syn and recognizes early soluble oligomers and late fibrils of a-syn (Syn-O2)[54]. This antibody detects these a-syn conformations in cerebrospinal fluid[55] and brain tissue[54] from PD patients. Levels of these a-syn conformations were increased in A53T a-syn neurons (Fig. 6G, H). Further, LAMP1 levels were reduced in A53T a-syn neurons (Fig. 6D, F).
A53T a-syn iCell Dopa neurons (catalog #R1109) and isogenic control iCell Dopa neurons (catalog #R1088) were purchased from Fujifilm Cellular Dynamics (Madison, WI, USA) and cultured as per the manufacturer’s instructions. […]
Confocal images of immunofluorescent staining were acquired with a Zeiss LSM880 confocal microscope equipped with 405, 488, 555, and 639 nm laser lines. All images were taken within the linear range at constant gain and pinhole settings at optimal resolution settings determined by the software. […]
Confocal images of primary cortical neurons, iPSC-derived dopaminergic neurons, and LAMP1 staining within the SN were processed using Imaris software (Oxford instruments). […] Mean pixel intensity per GFP^+ cell (for experiments using GFP-tagged peptides) or RFP^+ cell (for experiments using RFP-tagged peptides) was calculated for a-syn or LAMP1 signal using the software’s surfaces module. […]

## DEEIERQLKALG [PDpep1.3]
  Effect on oligomeric a-syn, iPSC neurons: returned levels of a-syn, including oligomeric a-syn, as well as LAMP1 levels to those of isogenic controls
